Literature values in patent US20130158016A1, “ANESTHETIC ASSOCIATION, ANESTHETIC COMPOSITION, AND […] VETERINARY USE” (Ouro Fino Participacoes e Empreendimentsos S/A, priority 2010, published 2013).

System: female dogs
Conditions: 2 mg/kg intravenously (slow), prophylactic

COc1cccc(C2(O)CCCCC2CN(C)C)c1 (stereo not drawn) [tramadol]
analgesia after ovariosalpingohisterectomy: analgesia similar to that produced by morphine | effect on expired concentration of isoflurane: reducing the expired concentration of isoflurane | neuroendocrine response to pain (catecholamine and cortisol): reducing the peaks of catecholamine and cortisol
